{
  "source": "PubChem BioAssay AID449732",
  "about": "(Southern Research Specialized Biocontainment Screening …, 2010)",
  "data": [
    {"system": "RSV titer reduction in cells, log virus titer", "assay": "RSV replication inhibition by virus titer reduction, cell-based, selected compounds (AID 449732)", "settings": "stronger effect = higher value", "values": [
      {"smiles": "O=C(CCNC(=O)c1ccc(Cl)cc1)NC1CCCc2ccccc21", "note": "(stereo unspecified)", "max log titer decrease": 8.6},
      {"smiles": "CC(C)(C)C(=O)Nc1sc(-c2ccccc2)cc1C(=O)O", "max log titer decrease": 5.66},
      {"smiles": "COc1ccc(C(=O)Nc2nc3c(s2)CCCC3)cc1S(=O)(=O)N1CCCc2ccccc21", "max log titer decrease": 8.6},
      {"smiles": "COc1ccc(C(c2c(NC(=O)c3ccco3)sc(C)c2C)N2CCOCC2)cc1OC", "note": "(stereo unspecified)", "max log titer decrease": 8.58},
      {"smiles": "O=C(O)C1CC=CCC1C(=O)Nc1ccc(S(=O)(=O)N2CCCc3ccccc32)cc1", "note": "(stereo unspecified)", "max log titer decrease": 8.58},
      {"smiles": "CCOc1ccc2nc(NC(=O)C(CCSC)NS(=O)(=O)c3cccs3)sc2c1", "note": "(stereo unspecified)", "max log titer decrease": 8.58},
      {"smiles": "O=C(CCNC(=O)c1ccc(Br)cc1)NC1CCCc2ccccc21", "note": "(stereo unspecified)", "max log titer decrease": 8.6},
      {"smiles": "CCN(c1ccccc1)S(=O)(=O)c1ccc(Cl)c(NC(=O)CSc2n[nH]c(N)n2)c1", "max log titer decrease": 8.6},
      {"smiles": "COCCCNC(=O)c1ccc(Cn2c(=O)c3ccccc3n(Cc3ccc(C)cc3)c2=O)cc1", "max log titer decrease": 8.58},
      {"smiles": "CN(C)C(=O)COC(=O)c1ccccc1Nc1ccc(SC(F)F)cc1", "max log titer decrease": 8.6},
      {"smiles": "O=C(O)c1cccnc1Nc1ccc(Cl)cc1", "max log titer decrease": 9.13},
      {"smiles": "CSc1nnc(Cn2c(=O)sc3ccccc32)n1-c1cccc(Cl)c1", "max log titer decrease": 5.47},
      {"smiles": "O=C(CCCOc1ccc(Cl)cc1Cl)Nc1ccccc1C(=O)O", "max log titer decrease": 8.03},
      {"smiles": "Cc1sc2nc(C3CC3)nc(SCC(=O)N3c4ccccc4CC3C)c2c1C", "note": "(stereo unspecified)", "max log titer decrease": 9.13},
      {"smiles": "CCOC(=O)c1ccc2[nH]c3c(c2c1)CN(C)CC3", "max log titer decrease": 9.13},
      {"smiles": "COc1ccccc1NCC(=O)Nc1cc(S(=O)(=O)N2CCOCC2)ccc1N1CCOCC1", "max log titer decrease": 4.6},
      {"smiles": "COC(=O)C1=C(C)N(Cc2ccccc2)C(=O)NC1c1ccccc1", "note": "(stereo unspecified)", "max log titer decrease": 9.13},
      {"smiles": "Cc1ccc(-n2c(SCC(=O)Nc3ncc(Cl)cc3Cl)nc3ccccc32)cc1", "max log titer decrease": 8.6},
      {"smiles": "O=C(NC(=S)Nc1ccccc1C(=O)O)c1ccc(-c2ccc(Br)cc2)o1", "max log titer decrease": 8.03},
      {"smiles": "COc1ccc(N(CC(=O)NC2CCCCC2)C(=O)c2ccc(C)s2)c(OC)c1", "max log titer decrease": 5.13},
      {"smiles": "CSc1ncccc1C(=O)Nc1nc(C(C)(C)C)cs1", "max log titer decrease": 5.6},
      {"smiles": "Cc1cccc(-n2c(SCC(=O)Nc3ncc(Cl)cc3Cl)nc3ccccc32)c1", "max log titer decrease": 8.6},
      {"smiles": "CCCC(c1nnnn1CC(=O)OCC)N(Cc1cc2c(C)cc(C)cc2[nH]c1=O)C1CCCC1", "note": "(stereo unspecified)", "max log titer decrease": 9.13},
      {"smiles": "CCOC(=O)c1c(-c2cccc(C)c2)csc1NC(=O)c1c(-c2ccccc2)noc1C", "max log titer decrease": 8.03},
      {"smiles": "Cc1ccc(NC(=O)C2CCCN2S(=O)(=O)c2cccc3cccnc23)c(C)c1", "note": "(stereo unspecified)", "max log titer decrease": 8.58},
      {"smiles": "COc1ccccc1CNC(=O)C1CCN(S(=O)(=O)c2cccc3nonc23)CC1", "max log titer decrease": 8.58},
      {"smiles": "COc1cccc(CNC(=O)c2cc3oc4ccccc4c3n2C)c1OC", "max log titer decrease": 8.58},
      {"smiles": "Cc1ccc(-c2nc3cccnc3s2)cc1NS(=O)(=O)c1cccs1", "max log titer decrease": 9.13},
      {"smiles": "CCOC(=O)C1=C(NC(=S)NC(=O)c2ccccc2)c2ccccc2CC1C(C)C", "note": "(stereo unspecified)", "max log titer decrease": 9.13},
      {"smiles": "Cn1c(C(=O)NCc2ccccc2)cc2oc3ccccc3c21", "max log titer decrease": 8.58},
      {"smiles": "Cc1ccc2c(c1)cc(C(=O)NCc1ccccc1)n2C", "max log titer decrease": 8.03},
      {"smiles": "Cc1c(NC(=O)COC(=O)c2cc(-c3ccc(-c4ccccc4)cc3)nc3ccccc23)c(=O)n(-c2ccccc2)n1C", "max log titer decrease": 8.6},
      {"smiles": "O=[N+]([O-])c1ccccc1S(=O)(=O)Nc1cccc(-c2ccc(N3CCCC3)nn2)c1", "max log titer decrease": 9.13},
      {"smiles": "O=S(=O)(c1cccc(-c2csc(-c3ccccc3)n2)c1)N1CCOCC1", "max log titer decrease": 8.58},
      {"smiles": "O=C(c1cc2nc(-c3ccccc3)cc(-c3ccccc3)n2n1)N1CCC2(CC1)OCCO2", "max log titer decrease": 8.03},
      {"smiles": "Cc1ccc(OCCn2c(C3CC(=O)N(Cc4ccccc4)C3)nc3ccccc32)cc1", "note": "(stereo unspecified)", "max log titer decrease": 8.6},
      {"smiles": "CCOc1ccc(CNC(=O)c2cc3oc4ccccc4c3n2C)cc1", "max log titer decrease": 8.58},
      {"smiles": "COc1cccc(C(=O)N(Cc2nc(-c3cccc(C)c3)no2)C(C)C)c1OC", "max log titer decrease": 8.03},
      {"smiles": "Cc1ccc(CSCC(=O)Nc2ccccc2C(=O)O)cc1", "max log titer decrease": 8.03},
      {"smiles": "C#CCn1c(S(=O)(=O)Cc2ccc(F)cc2)nc(-c2ccccc2)c1-c1ccccc1", "max log titer decrease": 3.37},
      {"smiles": "c1csc(-c2nn3c(Cn4cnc5ccccc54)nnc3s2)c1", "max log titer decrease": 5.14},
      {"smiles": "O=C(NCc1ccco1)c1ccc(Cn2c(=O)c3ccccc3n(Cc3ccc(Cl)cc3)c2=O)cc1", "max log titer decrease": 8.58},
      {"smiles": "CCc1nc(SCC(=O)N2c3ccccc3CC2C)c2c(C)c(C)sc2n1", "note": "(stereo unspecified)", "max log titer decrease": 9.13},
      {"smiles": "COC(=O)c1ccc(NC2c3ncccc3C(=O)N2Cc2cccs2)cc1", "note": "(stereo unspecified)", "max log titer decrease": 5.08},
      {"smiles": "O=C(Nc1ccc(N2CCCCC2)c(Cl)c1)c1cccnc1", "max log titer decrease": 9.13},
      {"smiles": "Cc1cccc(NC(=O)CSc2nc3ccccc3nc2N2CCCCC2)c1", "max log titer decrease": 9.13},
      {"smiles": "c1ccc(-c2nn3c(Cn4cnc5ccccc54)nnc3s2)cc1", "max log titer decrease": 8.58},
      {"smiles": "CCOC(=O)c1ccc(NC(=S)N2CCSC2c2ccc(Br)cc2)cc1", "note": "(stereo unspecified)", "max log titer decrease": 8.03},
      {"smiles": "Cc1nc2ccccc2nc1Nc1cccc(Cl)c1", "max log titer decrease": 8.03},
      {"smiles": "CC1Cc2ccccc2N1S(=O)(=O)c1cccc(C(=O)N2CCN(c3ncccn3)CC2)c1", "note": "(stereo unspecified)", "max log titer decrease": 8.6},
      {"smiles": "c1ccc(N2CCN(Cc3nc4ccccc4[nH]3)CC2)nc1", "max log titer decrease": 4.6}
    ]}
  ]
}
